This passage reports IC50 results from US20250215030A1, “STAT MODULATORS AND USES THEREOF” (Recludix Pharma, Inc., priority 2022, published 2025).

The structures appear in SMILES notation. Bounds are passed on as bounds.

T1 sequence (P40763 whole entry): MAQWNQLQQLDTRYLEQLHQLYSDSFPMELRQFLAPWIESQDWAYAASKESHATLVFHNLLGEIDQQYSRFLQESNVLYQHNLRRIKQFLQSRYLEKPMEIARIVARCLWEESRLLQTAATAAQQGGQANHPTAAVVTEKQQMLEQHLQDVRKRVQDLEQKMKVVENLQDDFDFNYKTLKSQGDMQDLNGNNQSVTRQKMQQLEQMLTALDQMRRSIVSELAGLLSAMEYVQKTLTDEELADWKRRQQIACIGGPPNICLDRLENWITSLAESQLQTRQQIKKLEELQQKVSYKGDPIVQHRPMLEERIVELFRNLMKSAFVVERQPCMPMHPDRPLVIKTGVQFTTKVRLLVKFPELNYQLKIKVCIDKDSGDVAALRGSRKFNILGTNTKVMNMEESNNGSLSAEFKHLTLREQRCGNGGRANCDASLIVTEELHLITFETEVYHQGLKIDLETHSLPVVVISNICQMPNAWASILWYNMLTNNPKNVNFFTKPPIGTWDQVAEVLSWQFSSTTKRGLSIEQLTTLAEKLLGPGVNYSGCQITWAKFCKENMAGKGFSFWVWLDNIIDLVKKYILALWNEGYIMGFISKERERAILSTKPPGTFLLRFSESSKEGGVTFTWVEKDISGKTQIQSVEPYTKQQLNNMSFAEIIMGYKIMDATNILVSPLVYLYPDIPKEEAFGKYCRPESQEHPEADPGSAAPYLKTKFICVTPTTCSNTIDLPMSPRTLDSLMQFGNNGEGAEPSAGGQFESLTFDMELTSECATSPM

The first assay concerns the target T1, pSTAT3 (pY705-STAT3) (Homo sapiens, UniProt P40763).
T1 construct: host or cells: cryopreserved PBMC
Briefly: MSD-pSTAT-PBMC Assay (pSTAT3, IL-6 stimulated). It counts as cell-based.
Conditions: not given
The essentials: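 Phospho-STAT levels captured on anti-STAT3 or anti-STAT6 plates and detected with anti-pY705 or anti-pY641 antibodies (MSD read-out). Cryopreserved human PBMCs received compound for 3 h before a 10 min pulse of IL-6 (10 ng/mL, STAT3) or IL-4 (1 ng/mL, STAT6). IC50 fitted after unstimulated-background subtraction and DMSO normalization.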
Consider `CCCOC(=O)[C@@H](C)NP(=O)(Cc1ccc2sc(C(=O)N[C@H]3C[C@H]4C[C@H]4C[C@H]4CC[C@@H](C(=O)N5CC(c6cnccc6C)C5)N4C3=O)cc2c1)Oc1ccccc1` (stereo in doubt) [Compound 242, propyl(((2-(((3S,6S,7aR,8aS,9aR)-3-(3-(4-methylpyridin-3-yl)azetidine-1-carbonyl)-5-oxodecahydro-1H-cyclopropa[d]pyrrolo[1,2-a]azocin-6-yl)carbamoyl)benzo[b]thiophen-5-yl)methyl)(phenoxy)phosphoryl)-L-alaninate], for which the IC50 is below 100 nM.

`CCCOC(=O)[C@H](C)NP(=O)(Oc1ccccc1)C(F)c1ccc2sc(C(=O)N[C@H]3C[C@H]4C[C@H]4C[C@H]4CC[C@@H](C(=O)N[C@H]5CN(C(C)=O)C[C@@H]5F)N4C3=O)cc2c1` (stereo partly drawn) [Compound 255, propyl(((2-(((3S,6S,7aR,8aS,9aR)-3-(((3S,4S)-1-acetyl-4-fluoropyrrolidin-3-yl)carbamoyl)-5-oxodecahydro-1H-cyclopropa[d]pyrrolo[1,2-a]azocin-6-yl)carbamoyl)benzo[b]thiophen-5-yl)fluoromethyl)(phenoxy)phosphoryl)-L-alaninate] came in with an IC50 of 100 to 1000 nM.

`CCCOC(=O)[C@H](C)N[P@](=O)(Oc1ccccc1)[C@H](F)c1ccc2sc(C(=O)N[C@H]3C[C@H]4C[C@H]4C[C@H]4CC[C@@H](C(=O)N5CC(c6cnccc6N6CCOCC6)C5)N4C3=O)cc2c1` [Compound 395, propyl((R)-((S)-fluoro(2-(((3S,6S,7aR,8aS,9aR)-3-(3-(4-morpholinopyridin-3-yl)azetidine-1-carbonyl)-5-oxodecahydro-1H-cyclopropa[d]pyrrolo[1,2-a]azocin-6-yl)carbamoyl)benzo[b]thiophen-5-yl)methyl)(phenoxy)phosphoryl)-L-alaninate] displayed an IC50 below 100 nM.

As for `CCCOC(=O)[C@H](C)N[P@@](=O)(Oc1ccccc1)[C@@H](F)c1ccc2sc(C(=O)N[C@H]3C[C@@H]4C[C@@H]4C[C@H]4CC[C@@H](C(=O)N5C[C@H](c6cnccc6N(C)C)CC56CC6)N4C3=O)cc2c1` (single isomer, unassigned) [Compound 434], the IC50 was below 100 nM.

`CCCOC(=O)[C@H](C)N[P@@](=O)(Oc1ccccc1)[C@@H](F)c1ccc2sc(C(=O)N[C@H]3C[C@@H]4C[C@@H]4C[C@H]4CC[C@@H](C(=O)N5C[C@H](c6cccnc6)[C@@H](C#N)C56CC6)N4C3=O)cc2c1` (single isomer, unassigned) [Compound 431] returned an IC50 above 3000 nM.

For `CCCOC(=O)[C@@H](C)NP(=O)(Cc1ccc2sc(C(=O)N[C@H]3C[C@@H]4C[C@]4(C)C[C@H]4CC[C@@H](C(=O)N5CC(c6cccnc6)C5)N4C3=O)cc2c1)Oc1ccccc1` (stereo in doubt) [Compound 240, propyl(((2-(((3S,6S,7aR,8aS,9aR)-8a-methyl-5-oxo-3-(3-(pyridin-3-yl)azetidine-1-carbonyl)decahydro-1H-cyclopropa[d]pyrrolo[1,2-a]azocin-6-yl)carbamoyl)benzo[b]thiophen-5-yl)methyl)(phenoxy)phosphoryl)-L-alaninate], the IC50 is below 100 nM.

Still in this assay, the particulars now being: PBMC, compound 3 hrs, then 10 ng/mL IL-6 for 10 min; MSD pY705-STAT3; read-out: pSTAT3.
For `CCCOC(=O)[C@H](C)N[P@@](=O)(Oc1ccccc1)[C@H](F)c1ccc2sc(C(=O)N[C@H]3C[C@H]4C[C@H]4C[C@H]4CC[C@@H](C(=O)N5CC(c6cnccc6N(C)C)C5)N4C3=O)cc2c1` [Compound 398, propyl((R)-((S)-(2-(((3S,6S,7aR,8aS,9aR)-3-(3-(4-(dimethylamino)pyridin-3-yl)azetidine-1-carbonyl)-5-oxodecahydro-1H-cyclopropa[d]pyrrolo[1,2-a]azocin-6-yl)carbamoyl)benzo[b]thiophen-5-yl)fluoromethyl)(phenoxy)phosphoryl)-L-ananinate], the IC50 was below 100 nM.

`CCCOC(=O)[C@H](C)NP(=O)(Cc1ccc2sc(C(=O)N[C@H]3C[C@@H]4C[C@@H]4C[C@H]4CC[C@@H](C(=O)N5CC(C(=O)N6CCOCC6)C5)N4C3=O)cc2c1)Oc1ccccc1` (stereo partly drawn) [Compound 217, propyl (((2-(((3S,6S,7aS, 8aR,9aR)-3-(3-(morpholine-4-carbonyl)azetidine-1-carbonyl)-5-oxodecahydro-1H-cyclopropa[d]pyrrolo[1,2-a]azocin-6-yl)carbamoyl)benzo[b]thiophen-5-yl)methyl) (phenoxy)phosphoryl)-L-alaninate]: the IC50 was 100 to 1000 nM.

Take `CC(C)OC(=O)[C@H](C)N[P@](=O)(Cc1ccc2sc(C(=O)N[C@H]3C[C@@H]4C[C@@H]4C[C@H]4CC[C@@H](C(=O)N5CC(C(=O)N6CCOCC6)C5)N4C3=O)cc2c1)Oc1ccccc1` (single isomer, unassigned) [Example 6]: the IC50 lay within 1000 to 3000 nM.

With `CCCOC(=O)[C@H](C)N[P@](=O)(Oc1ccccc1)[C@@H](F)c1ccc2sc(C(=O)N[C@H]3C[C@@H]4C[C@@H]4C[C@H]4CC[C@@H](C(=O)N5C[C@H](c6cccnc6)[C@@H](C#N)C56CC6)N4C3=O)cc2c1` (single isomer, unassigned) [Compound 430], the IC50 is above 3000 nM.

On to `CC(C)CC(=O)SCCOP(=O)(OCCSC(=O)CC(C)C)C(F)(F)c1ccc2sc(C(=O)N[C@H]3C[C@@H]4C[C@@H]4C[C@H]4CC[C@@H](C(=O)N5CC(c6ncccn6)C5)N4C3=O)cc2c1` [Compound 229, S,S′-((((difluoro(2-(((3S,6S,7aS, 8aR,9aR)-5-oxo-3-(3-(pyrimidin-2-yl)azetidine-1-carbonyl)decahydro-1H-cyclopropa[d]pyrrolo[1,2-a]azocin-6-yl)carbamoyl)benzo[b]thiophen-5-yl)methyl)phosphoryl)bis(oxy))bis(ethane-2,1-diyl)) bis(3-methylbutane thioate)], for which the IC50 is below 100 nM.

Take `CCCOC(=O)[C@H](C)NP(=O)(Oc1ccccc1)C(F)c1ccc2sc(C(=O)N[C@H]3C[C@H]4C[C@H]4C[C@H]4CC[C@@H](C(=O)N5CC(c6cnccc6OC)C5)N4C3=O)cc2c1` (stereo partly drawn) [Compound 319, propyl ((fluoro(2-(((3S,6S,7aR,8aS,9aR)-3-(3-(4-methoxypyridin-3-yl)azetidine-1-carbonyl)-5-oxodecahydro-1H-cyclopropa[d]pyrrolo[1,2-a]azocin-6-yl)carbamoyl)benzo[b]thiophen-5-yl)methyl)(phenoxy)phosphoryl)-L-alaninate]: the IC50 was below 100 nM.

`Cc1ccncc1C1CN(C(=O)[C@@H]2CC[C@@H]3C[C@H]4C[C@H]4C[C@H](NC(=O)c4cc5cc(C(F)P(=O)(N[C@@H](C)C(=O)OCC(C)C)Oc6ccccc6)ccc5s4)C(=O)N32)C1` (stereo partly drawn) [Compound 374, isobutyl ((fluoro(2-(((3S,6S,7aS,8aR,9aR)-3-(3-(4-methylpyridin-3-yl)azetidine-1-carbonyl)-5-oxodecahydro-1H-cyclopropa[d]pyrrolo[1,2-a]azocin-6-yl)carbamoyl)benzo[b]thiophen-5-yl)methyl)(phenoxy)phosphoryl)-L-alaninate]: the IC50 is below 100 nM.

For `CCCOC(=O)[C@H](C)NP(=O)(Cc1ccc2sc(C(=O)N[C@H]3C[C@@H]4C[C@@H]4C[C@H]4CC[C@@H](C(=O)N5CC(c6cnccc6F)C5)N4C3=O)cc2c1)Oc1ccccc1` (stereo partly drawn) [Compound 264, propyl (((2-(((3S,6S,7aS,8aR,9aR)-3-(3-(4-fluoropyridin-3-yl)azetidine-1-carbonyl)-5-oxodecahydro-1H-cyclopropa[d]pyrrolo[1,2-a]azocin-6-yl)carbamoyl)benzo[b]thiophen-5-yl)methyl)(phenoxy)phosphoryl)-L-alaninate], the IC50 is below 100 nM.

Turning to `CCCOC(=O)[C@H](C)NP(=O)(OCC(F)(F)F)C(F)c1ccc2sc(C(=O)N[C@H]3C[C@@H]4C[C@@H]4C[C@H]4CC[C@@H](C(=O)N5CC(c6cnccc6C)C5)N4C3=O)cc2c1` (stereo partly drawn) [Compound 287, propyl ((fluoro(2-(((3S,6S,7aS,8aR,9aR)-3-(3-(4-methylpyridin-3-yl)azetidine-1-carbonyl)-5-oxodecahydro-1H-cyclopropa[d]pyrrolo[1,2-a]azocin-6-yl)carbamoyl)benzo[b]thiophen-5-yl)methyl)(2,2,2-trifluoroethoxy)phosphoryl)-L-alaninate], the IC50 was below 100 nM.

As for `CCCOC(=O)[C@H](C)NP(=O)(Oc1ccccc1)C(F)c1ccc2sc(C(=O)N[C@H]3C[C@@H]4C[C@@H]4C[C@H]4CC[C@@H](C(=O)N5CC(c6cc(C)on6)C5)N4C3=O)cc2c1` (stereo partly drawn) [Compound 359, propyl ((fluoro(2-(((3S,6S,7aS,8aR,9aR)-3-(3-(5-methylisoxazol-3-yl)azetidine-1-carbonyl)-5-oxodecahydro-1H-cyclopropa[d]pyrrolo[1,2-a]azocin-6-yl)carbamoyl)benzo[b]thiophen-5-yl)methyl)(phenoxy)phosphoryl)-L-alaninate], the IC50 is below 100 nM.

On to `CCCOC(=O)[C@H](C)NP(=O)(Oc1ccccc1)C(F)c1ccc2sc(C(=O)N[C@H]3C[C@H]4C[C@H]4C[C@H]4CC[C@@H](C(=O)N5CC(c6cnccc6F)C5)N4C3=O)cc2c1` (stereo partly drawn) [Compound 249, propyl ((fluoro(2-(((3S,6S,7aR,8aS,9aR)-3-(3-(4-fluoropyridin-3-yl)azetidine-1-carbonyl)-5-oxodecahydro-1H-cyclopropa[d]pyrrolo[1,2-a]azocin-6-yl)carbamoyl)benzo[b]thiophen-5-yl)methyl)(phenoxy)phosphoryl)-L-alaninate], for which the IC50 is below 100 nM.

Turning to `CCCOC(=O)[C@H](C)NP(=O)(Oc1ccccc1)C(F)c1ccc2sc(C(=O)N[C@H]3C[C@@H]4C[C@@H]4C[C@H]4CC[C@@H](C(=O)N5CC(c6ncc(C)o6)C5)N4C3=O)cc2c1` (stereo partly drawn) [Compound 325, propyl ((fluoro(2-(((3S,6S,7aS,8aR,9aR)-3-(3-(5-methyloxazol-2-yl)azetidine-1-carbonyl)-5-oxodecahydro-1H-cyclopropa[d]pyrrolo[1,2-a]azocin-6-yl)carbamoyl)benzo[b]thiophen-5-yl)methyl)(phenoxy)phosphoryl)-L-alaninate], the IC50 fell in the range of 100 to 1000 nM.
